Source: patent US20240033244A1, “COMPOSITIONS AND METHODS FOR INHIBITING YTHDF1” (SHANGHAI INSTITUTE OF MATERIA MEDICA, CHINESE ACADEMY OF …, priority 2020, published 2024)

Tests used:
YTHDF1 (361-559) [1] = biological target: T1, YTHDF1 (361-559) (Homo sapiens, UniProt Q9BYJ9); experiment: Fluorescence polarization (FP) assay, inhibition of m6A-containing mRNA binding to YTHDF1; conditions: read-out: IC50, inhibition of interaction between m6A-containing mRNA and YTHDF1
T1 construct: GST (N, cleaved yes); made in house; host or cells: E. coli BL21 (DE3)
T1 sequence (Q9BYJ9 with tags, fused parts or gaps): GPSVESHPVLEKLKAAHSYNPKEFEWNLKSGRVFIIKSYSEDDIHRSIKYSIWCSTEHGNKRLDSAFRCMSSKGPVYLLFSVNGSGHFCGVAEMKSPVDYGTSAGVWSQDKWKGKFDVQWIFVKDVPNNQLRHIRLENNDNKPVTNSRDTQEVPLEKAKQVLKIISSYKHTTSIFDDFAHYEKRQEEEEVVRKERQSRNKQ
Method: As for activity tests, 1.25 μM YTHDF1 (361-559) was incubated with candidate compounds diluted to concentrations as indicated for 30 minutes. The subsequent steps were similar to that of HTS. And an equal amount of DMSO was used as the negative control.

YTHDF1 (361-559) [2] = biological target: T1, YTHDF1 (361-559); experiment: NMR CPMG binding experiment; conditions: 200 μM SAA; 5 μM, 10 μM and 20 μM YTHDF1
Method: NMR CPMG experiment was performed at 25° C. using Bruker Avance III spectrometer (600 MHz proton frequency) with a cryogenically cooled probe (Bruker biospin, Germany). YTHDF1 (361-559) was diluted to 20 μM, 10 μM and 5 μM in phosphate buffer (20 mM NaH2PO4, 20 mM Na2HPO4, 150 mM NaCl, pH 7.4, D2O). […] The solvent-suppressed 1D ^1H CPMG was obtained via the pulse sequence (RD-90°-(τ-180°-τ) n-ACQ). In the pre-saturation procedure, a 54.78 dB pulse in 4 s duration of the recycle delay (RD) was applied to eliminate water resonance. Then, the 900 pulse length was modulated to 11.82 μs approximately. And at last, a total of 4 dummy scans and 64 free induction decays (FIDs) were collected into […] acquisition points, covering a spectral width of 12 kHz (20 ppm) with the acquisition time (ACQ) of 2.73 s.
Then, qualitative and quantitative experiments were performed to explore the binding between SAA and YTHDF1. Firstly, nuclear magnetic resonance (NMR) Carr-Purcell-Meiboom-Gill (CPMG) experiments were conducted.

YTHDF1 mutant N378A = biological target: T2, YTHDF1 mutant N378A (Homo sapiens, UniProt Q9BYJ9, N378A); experiment: FP assay with YTHDF1 mutant N378A; assay type: binding
T2 construct: GST (N, cleaved yes); made in house; host or cells: E. coli BL21 (DE3)
T2 sequence (Q9BYJ9 with tags, fused parts or gaps N378A): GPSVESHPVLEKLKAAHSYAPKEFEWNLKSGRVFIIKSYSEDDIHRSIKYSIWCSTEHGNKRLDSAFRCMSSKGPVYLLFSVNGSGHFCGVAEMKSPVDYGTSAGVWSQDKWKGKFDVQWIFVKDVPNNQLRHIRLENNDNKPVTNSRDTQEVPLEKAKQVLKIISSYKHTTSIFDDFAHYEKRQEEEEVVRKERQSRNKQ
Method: The protein YTHDF1 (361-559) (SEQ ID NO: 2) and its mutants (SEQ ID NOs: 4-13) were cloned into pGEx-6P-1 vector (obtained from YouBio Co, Ltd, Catalog NO: VT1258), and the His-YTHDF1 (361-559) (SEQ ID NO: 3) used in AlphaScreen Assay was cloned into modified pET28a vector (obtained from YouBio Co, Ltd, Catalog NO: VT1207). The vectors were transformed into E. coli BL21 (DE3) cells and cultured at 37° C. When OD value reached 0.6˜0.8, 1 mM Isopropyl-β-D-thiogalactopyranoside was added to overexpress the protein at 16° C. overnight. […] Then, the proteins were further purified via cation exchange (HiTrap SP, GE Healthcare) and finally through a Superdex 75 10/300 column (GE Healthcare). At last, the purified YTHDF1(361-559) and the mutants were kept in buffer which contains 20 mM Hepes (pH 7.4) and 200 mM NaCl. For His-YTHDF1 (361-559), the protein was purified via Ni-NTA chromatography (HisTrap FF, GE Healthcare), followed by cation exchange and Superdex 75 10/300 column in sequence. And the obtained protein was kept in the buffer with the same ingredients.
All of the YTHDF1 (361-559), the 5′-FAM labeled m^6A-containing mRNA (5′-FAM-[…] (m^6A) CUGUG-3′, SEQ ID NO: 14) and the candidate compounds were diluted with assay buffer (20 mM Hepes (pH 7.4), 50 mM NaCl, 0.01% (v/v) tween 20, 5% (v/v) glycerol). […] At last, the mixtures were measured by Envision Readers (PerkinElmer). […]

YTHDF1 in 293T cells = biological target: T3, YTHDF1 in 293T cells (Homo sapiens, UniProt Q9BYJ9); experiment: Cellular thermal shift assay (CETSA) in 293T cells; assay type: cell-based; conditions: 100 μM SAA for 4 hours
T3 construct: endogenous in cells; host or cells: 293T (ATCC)
T3 sequence (Q9BYJ9 whole entry): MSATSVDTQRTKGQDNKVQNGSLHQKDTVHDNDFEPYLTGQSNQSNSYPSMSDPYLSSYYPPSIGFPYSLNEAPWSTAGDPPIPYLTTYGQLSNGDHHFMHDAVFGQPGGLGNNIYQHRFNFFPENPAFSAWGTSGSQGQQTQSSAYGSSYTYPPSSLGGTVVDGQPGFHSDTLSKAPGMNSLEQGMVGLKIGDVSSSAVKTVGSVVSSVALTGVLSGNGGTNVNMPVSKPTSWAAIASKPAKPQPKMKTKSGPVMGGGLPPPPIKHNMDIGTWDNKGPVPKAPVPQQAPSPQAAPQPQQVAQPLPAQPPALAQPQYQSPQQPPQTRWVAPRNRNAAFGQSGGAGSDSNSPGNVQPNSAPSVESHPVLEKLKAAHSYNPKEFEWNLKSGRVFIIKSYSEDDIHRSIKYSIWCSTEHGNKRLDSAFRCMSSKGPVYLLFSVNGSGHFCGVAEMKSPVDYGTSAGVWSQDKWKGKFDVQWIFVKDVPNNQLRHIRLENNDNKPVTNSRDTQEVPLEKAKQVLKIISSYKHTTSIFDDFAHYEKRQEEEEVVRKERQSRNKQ
Method: The cellular thermal shift assay (CETSA) was conducted according to the protocol reported previously. 293T cell line (ATCC) used in the assay was cultured at 37° C., 5% CO2, in DMEM culture medium (Life Technologies) containing 10% fetal calf serum (Gibco, U.S.A.), 1% penicillin/streptomycin (Life Technologies). 293T cells were collected after incubated with PBS buffer as control or 100 μM SAA for 4 hours and equally divided into twelve parts, respectively. The divided parts were heated under series of temperature range from 39° C. to 59° C. for 3 minutes and cooled at 4° C. for 3 minutes immediately. Then, the cells were lysed via freeze-thawing with liquid nitrogen and the protein samples were collected by centrifugation. Though adding in SDS loading and boiling at 99° C. for 5 minutes, the samples were prepared for western blot detection. In the western blot assays, GAPDH was used as the internal reference. And the quantitative analysis of the results of the assay was performed via ImageJ software.
Further, the binding of SAA to YTHDF1 in cells was also examined. Cellular thermal shift (CETSA) assay was performed with 293T cell line, which was collected for heating at temperatures as indicated. After incubating the cells with 100 μM SAA for 4 hours, YTHDF1 protein in the incubated 293T cells were examined with western blot. […]

With `O=C(/C=C/c1ccc(O)c(O)c1/C=C/c1ccc(O)c(O)c1)O[C@H](Cc1ccc(O)c(O)c1)C(=O)O` [SAA, Salvianolic Acid A] the IC50 (YTHDF1 (361-559) [1]) was 2.3 ± 0.11 µM, the “CPMG signal of the compound on addition of YTHDF1” value (YTHDF1 (361-559) [2]) was “signal decreased” and the “inhibitory activity against mutant binding to m6A versus wildtype” value (YTHDF1 mutant N378A) was “significantly weaker than that against wildtype YTHDF1”. The “CETSA curve shift to the right (YTHDF1 stability)” value (YTHDF1 in 293T cells) was “about 2 degrees”.
